Laboratory results published in patent US20230183758A1, “METHOD FOR PREPARING DIACYLGLYCEROL BY IMMOBILIZED SN-2 LIPASE” (Shandong Academy of Agricultural Sciences, priority 2021, published 2023).
Entries after “also recorded” stand apart in the source; their conditions may differ.

Biological target: immobilized enzyme CAL-A and free enzyme CAL-A (Moesziomyces aphidis, UniProt W3VKA4)
Test: Influence of organic solvents, metal ions and surfactants on enzyme activity
Assay type: biochemical, Candida antarctica
Settings: for effect of organic solvent on hydrolysis activity: 10% (v/v) and 20% (v/v) solvent
From the text: Add 10 mmol/L, 5 mmol/L, l0 mmol/L K+, Al^3+, Fe^2+, Fe3+, Ca^2+, Mg^2+, Mn^2+, Zn^2+, Ba^2+, Na^2+ and other 10 kinds of metal ion solutions to measure the enzyme activity respectively, take the activity of the untreated immobilized enzyme CAL-A and free enzyme CAL-A enzyme as 100%, analyze the influence of metal ions on the enzyme activity. (FIG. 4-G, FIG. 4-H, FIG. 4-I).
Add 10% (v/v) and 20% (v/v) methanol, ethanol, acetonitrile, acetone, n-butanol, isooctane, isopropanol, n-hexane, n-heptane, petroleum ether, tert-butyl Alcohol, glacial acetic acid, ethyl acetate and other 13 kinds of organic solvent solutions respectively, measure the enzyme activity. Take the untreated immobilized enzyme CAL-A and free enzyme CAL-A enzyme activity as 100%, analyze the influence of organic solvent on the enzyme activity.
Add 0.0001%, 0.0005%, 0.001% SDS, TritionX-100, Tween-80, Tween-20, EDTA and other 5 kinds of surfactant solutions respectively, measure the enzyme activity, take the untreated immobilized enzyme CAL-A and free enzyme CAL-A enzyme activity as 100%, analyze the influence of surfactant on enzyme activity.

immobilized enzyme CAL-A and free enzyme CAL-A, sequence (W3VKA4 22-462): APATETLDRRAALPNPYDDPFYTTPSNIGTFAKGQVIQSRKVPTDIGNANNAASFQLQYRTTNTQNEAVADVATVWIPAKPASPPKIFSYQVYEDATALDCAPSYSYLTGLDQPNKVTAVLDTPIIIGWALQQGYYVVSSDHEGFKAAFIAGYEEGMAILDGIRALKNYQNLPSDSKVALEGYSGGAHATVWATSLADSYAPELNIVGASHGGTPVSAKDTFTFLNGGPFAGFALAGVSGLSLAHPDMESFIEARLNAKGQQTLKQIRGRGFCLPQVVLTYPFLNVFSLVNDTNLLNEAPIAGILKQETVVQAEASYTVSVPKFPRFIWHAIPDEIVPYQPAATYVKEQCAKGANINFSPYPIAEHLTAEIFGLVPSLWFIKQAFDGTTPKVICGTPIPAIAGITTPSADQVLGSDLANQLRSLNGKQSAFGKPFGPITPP

Molecule | effect of organic solvent on hydrolysis activity (untreated enzyme = 100%) | further results
O=S(=O)([O-])[O-].[Fe+2] [Fe^2+] |  | effect of metal ion on hydrolysis of immobilized enzymes (metal ion solutions 1, 5, 10 mmol/L, untreated enzyme = 100%): activate
O=C(O)CN(CCN(CC(=O)O)CC(=O)O)CC(=O)O [EDTA] |  | effect of surfactant on lipase activity (0.0005% EDTA): activating effect; also recorded: activate; effect of surfactant on lipase activity (0.001% EDTA): inhibitory effect; also recorded: inhibit
CCO [ethanol] | significantly inhibit; also recorded: obvious inhibitory effects | 
n-butanol | activate; also recorded: activation effects | 
CCOC(C)=O [ethyl acetate] | activate; also recorded: activation effects | 
CC(=O)O [acetic acid] | significantly inhibit; also recorded: obvious inhibitory effects | 
CCCCCC [n-hexane] | significantly inhibit; also recorded: obvious inhibitory effects | 
CC(C)(C)O [tert-butanol] | activate; also recorded: activation effects | 
